Reference: patent US8735150B2, “Methods for detecting embryonic stem cells, induced pluripotent stem cells, or cells undergoing reprogramming to produce induced pluripotent stem cells” (New York University, priority 2010, dated 2014)

System: iPSC
Experiment: CDy1 staining of iPSC colonies generated from Oct4-GFP transgenic mouse MEF
Assay type: cell-based
Description: The retroviral packaging cell, PlatE cell, was maintained in DMEM containing 10% FBS, 100 U/ml penicillin, 100 μg/ml streptomycin, 10 μg/mlblasticidin S, and 1 μg/ml puromycin. For the generation of retroviruses, 40 μg of each retroviral vector expressing each mouse Oct4, Sox2, Klf4, and c-Myc was transfected together using Lipofectamine™ 2000 (Invitrogen, Carlsbad, Calif.) into PlatE cells plated at a density of 8×10^6 cells/10 cm cell culture dish and cultured overnight in DMEM containing 10% FBS. Medium was changed five hours after transfection to normal maintenance medium and incubated further in a humidified atmosphere of 5% CO2 and 95% air at 37° C. Culture supernatant was harvested 48 hours after transfection, filtered through a 0.45 μm syringe filter, concentrated by using amicon ultra-15 Centrifugal filter units (Millipore, Billerica, Mass.), and stored at −80° C. until use. For reprogramming, MEFs prepared from E13.5 B6; CBA-Tg(Pou5f1-EGFP)2Mnn/J mouse (Jackson Laboratory, Bar Harbor, Me.) embryo were infected with retrovirus mixture eight hours later. Polybrene (Sigma-Aldrich, St. Louis, Mo.) was added at a concentration of 10 μg/ml to increase virus adsorption. Infected MEFs were harvested 48 hours later by trypsinization and plated onto mytomycin C treated MEF feeder cells. The cells were maintained in mESC culture medium that was changed every day until designated time points.
The reprogramming was performed in a 6-well culture dish by retroviral introduction of four transcriptions factors: Oct4, Sox2, Klf4, and c-Myc (Takahashi et al., “Induction of Pluripotent Stem Cells from Mouse Embryonic and Adult Fibroblast Cultures by Defined Factors,” Cell, 126(4):663-676 (2006), which is hereby incorporated by reference in its entirety). iPSC generation was verified by GFP expression, alkaline phosphatase assay, and immunostaining of SSEA-1 at 17 days post infection (“dpi”). […] When the 155 colonies grown in 6-well plate cells were treated with CDy1 at 17 dpi, 101 colonies (65%) were both CDy1 and GFP positive, 26 (17%) were CDy1-only positive, 4 (3%) were GFP-only positive and 24 (15%) were negative both for CDy1 and GFP, despite the fact that the morphology of the colonies was indistinguishable (FIG. 9).
In a cell culture treated with CDy1 at an earlier time point of iPSC generation (10 dpi), increasing numbers of CDy1-stained colonies started to show GFP signal during the following days (FIG. 10A). To perform a more systematic analysis, the cells were stained with CDy1 at 2 dpi (i.e., when iPSC was not distinguishable by any means) and the CDy1 and GFP signals were tracked by daily acquisition of cell images using an ImageXpress^MICRO system. At 10 dpi, when small colonies started to appear, 342 CDy1-positive but GFP-negative colonies were selected and their GFP expression was followed until 25 dpi. An increasing number of colonies started to express GFP during this period, and 338 (99%) out of the 342 tracked colonies were GFP-positive at 25 dpi (FIG. 10B).

CCCCN(CCCC)c1ccc2c(-c3cccc(CN4CCOCC4)c3)c3ccc(=N)cc-3oc2c1 [CDy1]
earliest CDy1 staining of the cells that expressed GFP at 12 dpi: 6 dpi
differences in number of GFP-positive colonies or cell morphology compared to untreated iPSC (10 to 25 dpi): no detectable differences
selective staining of iPSC colony (17 dpi): selectively stained the iPSC colony
colonies CDy1-only positive (number) (17 dpi, of 155 colonies): 26
colonies CDy1-only positive (percent) (17 dpi, of 155 colonies): 17%
colonies GFP-only positive (number) (17 dpi, of 155 colonies): 4
colonies GFP-only positive (percent) (17 dpi, of 155 colonies): 3%
colonies both CDy1 and GFP positive (number) (17 dpi, of 155 colonies): 101
colonies both CDy1 and GFP positive (percent) (17 dpi, of 155 colonies): 65%
colonies negative both for CDy1 and GFP (number) (17 dpi, of 155 colonies): 24
colonies negative both for CDy1 and GFP (percent) (17 dpi, of 155 colonies): 15%
colonies GFP-positive at 25 dpi (percent) (of 342 CDy1-positive but GFP-negative colonies selected at 10 dpi): 99%
colonies GFP-positive at 25 dpi (number) (of 342 CDy1-positive but GFP-negative colonies selected at 10 dpi, stained at 2 dpi): 338
